Assay: Log D determination (octanol / phosphate buffer pH 7.4)
Details: octanol / 0.1 M phosphate buffer pH 7.4, pH 7.4
Text: Lipophilicity is a key determinant of the PK behavior of drugs. It can influence distribution into tissues, absorption and the binding characteristics of a drug, as well as being an important factor in determining the solubility of a compound. Log D (distribution co-efficient) is used as a measure of lipophilicity.
The solution was transferred to tubes, centrifuged and the supernatant is drawn off the top, leaving any solid compound in the bottom. This supernatant was then syringe filtered through 0.2 μm filters to produce the initial solution. Three vials were prepared containing values. […] The vials were mixed to equilibrium, then centrifuged to ensure the two phases were fully separated before the octanol was removed and the buffer samples analyzed. For the quantitative analysis, the aqueous solutions were analyzed by LC MS/MS. The amount of VCE-004.8 in each vial was quantified against a 6 points standard curve which was produced by serially diluting the initial solution. Log D was calculated using the equation, shown in FIG. 7, wherein ConcINITlAL is a concentration of compound in the initial aqueous solution, ConcFINAL is a concentration of compound in final aqueous phase, Vaq is a volume of aqueous phase, and Voct is a volume of octanol phase.

SMILES: C=C(C)[C@@H]1CCC(C)=C[C@H]1c1c(O)cc(CCCCC)cc1O [CBD, cannabidiol]
- logD: 5.44
